Data taken from patent US9649285B2, “Treatment of medium-chain acyl-CoA dehydrogenase deficiency” (UNIVERSITY OF PITTSBURGH—OF THE COMMONWEALTH SYSTEM OF …, priority 2012, dated 2017).
Substitutions are numbered along the chain they refer to.

Experiments:
[1] = biological target: T1, partially purified recombinant human LCAD (Homo sapiens, UniProt P28330); test: ETF fluorescence reduction assay with LCAD; assay type: biochemical
T1 construct: made in house
T1 sequence (P28330 31-430): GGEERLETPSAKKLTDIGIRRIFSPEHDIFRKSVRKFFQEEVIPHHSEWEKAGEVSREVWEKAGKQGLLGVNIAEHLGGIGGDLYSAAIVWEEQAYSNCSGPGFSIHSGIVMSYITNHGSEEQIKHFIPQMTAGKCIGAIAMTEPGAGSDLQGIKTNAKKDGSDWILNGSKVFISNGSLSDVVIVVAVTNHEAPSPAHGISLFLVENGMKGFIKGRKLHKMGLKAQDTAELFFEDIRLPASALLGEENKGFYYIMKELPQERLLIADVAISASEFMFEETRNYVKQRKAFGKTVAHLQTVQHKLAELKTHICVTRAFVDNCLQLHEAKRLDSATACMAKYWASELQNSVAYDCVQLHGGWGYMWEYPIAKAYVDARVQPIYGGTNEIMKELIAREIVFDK

[2] = tested on: extracts from wild type fibroblast cells (GM085401); test: ETF fluorescence reduction assay of cell extract, wild type fibroblasts; assay type: biochemical, human; details: 30 μM substrate
Procedure: (§1) Fibroblast Cell Culture and Extract Preparation.
(§2) Wild type and MCAD deficient cells (homozygous for the K304E mutation) with the designation GM085401 and GM07844, respectively, were obtained form Coriell Institute for Medical Research, Camden, N.J. Cells were cultured in DMEM medium supplemented with glutamine and ampicillin and streptomycin, and 20% fetal bovine serum. Cells were harvested from a T175 flask by sonication with a buffer consisting of 50 mM Tris buffer and 10 mM EDTA, pH 8.0. The cell debris was removed by centrifugation and the cell free extract was assayed for protein and enzyme activity as described below.
(§3) ETF Fluorescence Reduction Assay.
(§4) The ETF reduction assay was performed using a Jasco FP-6300 spectrofluorometer (Easton, Md.) with a cuvette holder heated with circulating water at 32° C. The assay was otherwise performed as described (22), at the indicated substrate concentrations. The enzyme was diluted 1200-fold into a buffer containing 50 mM Tris, pH 8.0, 5 mM EDTA and 50% glycerol, and […] were used for each assay. The ETF concentration in the reaction mixture was 2 μM. Spectra Manager 2 software (Jasco Inc) was used to collect data and calculate reaction rate and Microsoft Excel was used to calculate the kinetic parameters.

[3] = tested on: extract from fibroblast cells deficient in MCAD (GM07844, homozygous K304E); test: ETF fluorescence reduction assay of cell extract, MCAD deficient fibroblasts; assay type: biochemical, human; details: similar amounts of extract
Procedure: as §1, §2, §3, §4

Purified ACAD9 = biological target: T2, Purified ACAD9 (Homo sapiens, UniProt Q9H845); test: ETF fluorescence reduction assay with ACAD9; assay type: biochemical
T2 construct: made in house
T2 sequence (Q9H845 38-621): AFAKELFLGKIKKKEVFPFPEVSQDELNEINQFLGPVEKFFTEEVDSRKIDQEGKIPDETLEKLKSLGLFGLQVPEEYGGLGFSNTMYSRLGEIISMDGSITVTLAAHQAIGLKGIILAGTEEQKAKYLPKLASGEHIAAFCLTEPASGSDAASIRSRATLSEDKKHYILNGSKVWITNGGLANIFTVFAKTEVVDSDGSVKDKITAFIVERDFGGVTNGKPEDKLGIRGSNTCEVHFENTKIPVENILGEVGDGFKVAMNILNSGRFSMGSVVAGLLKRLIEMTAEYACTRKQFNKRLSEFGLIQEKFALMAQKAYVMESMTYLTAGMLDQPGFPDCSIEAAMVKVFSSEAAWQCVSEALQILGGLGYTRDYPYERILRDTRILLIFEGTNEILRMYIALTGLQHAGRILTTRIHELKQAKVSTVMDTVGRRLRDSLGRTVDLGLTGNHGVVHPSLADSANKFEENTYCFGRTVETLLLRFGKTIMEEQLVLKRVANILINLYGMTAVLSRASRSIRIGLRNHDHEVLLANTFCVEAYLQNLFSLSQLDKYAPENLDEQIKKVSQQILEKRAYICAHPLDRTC

[4] = biological target: T3, purified recombinant human MCAD (Homo sapiens, UniProt P11310); test: Formation of the charge transfer complex (reductive half-reaction), absorbance at 447/570 nm; assay type: binding; details: Stockell plot, substrate:subunit ratio 1:1; enzyme 25.2 μM; anaerobic, pH 8.0; read-out: apparent dissociation constant (KD app)
T3 construct: made in house; host or cells: E. coli JM105, co-expressed with GroEL/GroES
T3 sequence (P11310 26-421): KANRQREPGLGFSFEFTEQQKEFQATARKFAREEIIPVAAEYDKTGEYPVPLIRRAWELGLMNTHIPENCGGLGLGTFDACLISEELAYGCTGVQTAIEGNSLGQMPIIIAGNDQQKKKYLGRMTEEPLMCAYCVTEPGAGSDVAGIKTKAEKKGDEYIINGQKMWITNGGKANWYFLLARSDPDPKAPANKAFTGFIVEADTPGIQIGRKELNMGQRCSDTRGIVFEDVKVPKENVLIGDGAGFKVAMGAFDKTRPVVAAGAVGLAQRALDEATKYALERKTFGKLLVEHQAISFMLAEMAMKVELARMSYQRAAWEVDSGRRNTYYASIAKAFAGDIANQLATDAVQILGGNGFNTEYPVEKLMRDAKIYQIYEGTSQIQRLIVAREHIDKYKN
Procedure: (§5) Purification of Recombinant Human MCAD.
(§6) Expression and purification of recombinant human MCAD was performed as previously described for isovaleryl-CoA dehydrogenase with minor modifications (18). E. coli JM105 cells (Amersham Biosciences Corp; Piscataway, N.J.) containing the human MCAD high expression vector pKeMCAD (19) and a GroEL/GroES expression plasmid were grown overnight in a 200-ml LB broth pre-culture that was used to inoculate 4×2-L cultures in 2-YT broth. The cells were left to grow overnight at 37° C. with shaking and MCAD expression was induced the next morning using IPTG at a final concentration of 0.5 mM for 3 hrs. Cells were harvested by centrifugation and resuspended at 4° C. in 2:1 weight to volume of 100 mM potassium phosphate pH 8.0, 150 mM EDTA. Cells were then lysed by sonication on ice. […]
Formation of the charge transfer ternary complex was monitored by observing the increase in absorbance at the 570 nm area, concomitant with the decrease of absorbance at 447 nm area, of the purified MCAD in 120 mM potassium phosphate spectrum under anaerobic conditions using a Jasco V-650 Spectrophotometer. […] Ten seconds of equilibration time were allowed after mixing and the sample was scanned for UV/Visible light absorbance at 250 to 800 nm. […] The “apparent” productive-binding constant (Kd app) was calculated with the following equation: […]

recombinant human MCAD = biological target: T4, recombinant human MCAD (Homo sapiens, UniProt P11310); test: ETF fluorescence reduction assay with purified MCAD (oxidative half-reaction); assay type: biochemical
T4 construct: made in house; host or cells: E. coli JM105, co-expressed with GroEL/GroES
T4 sequence (P11310 26-421): T3 sequence (P11310 26-421)
Procedure: as §5
as §6, with “ice. Including high amounts of EDTA in the cell lysis buffer can protect residues with groups, e.g., cysteine thiols and methionine sulfide groups, vulnerable to modification by oxygen reactive species generated during sonication cell suspension. This was effective in improving enzyme preparations resulting higher specific activity and consistent kinetic behavior. Cellular debris was removed by centrifugation first at 250,000×g for 60 minutes each.” for “ice.”
(§7) ETF Fluorescence Reduction Assay. […]

Purified SCAD = biological target: T5, Purified SCAD (Homo sapiens, UniProt P16219); test: ETF fluorescence reduction assay with SCAD; assay type: biochemical
T5 construct: made in house
T5 sequence (P16219 25-412): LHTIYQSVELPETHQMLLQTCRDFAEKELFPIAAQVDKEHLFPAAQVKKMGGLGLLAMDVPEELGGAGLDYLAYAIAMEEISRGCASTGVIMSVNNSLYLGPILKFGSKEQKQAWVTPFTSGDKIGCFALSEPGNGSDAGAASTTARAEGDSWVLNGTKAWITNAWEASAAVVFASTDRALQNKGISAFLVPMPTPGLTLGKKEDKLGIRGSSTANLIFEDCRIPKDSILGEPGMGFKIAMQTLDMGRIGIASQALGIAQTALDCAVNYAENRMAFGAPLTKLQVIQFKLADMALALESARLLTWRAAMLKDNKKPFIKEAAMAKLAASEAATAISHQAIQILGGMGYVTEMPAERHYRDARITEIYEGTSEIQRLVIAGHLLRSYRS
Procedure: as §6, with “ice. Including high amounts of EDTA in the cell lysis buffer can protect residues with groups, e.g., cysteine thiols and methionine sulfide groups, vulnerable to modification by oxygen reactive species generated during sonication cell suspension. This was effective in improving enzyme preparations resulting higher specific activity and consistent kinetic behavior. Cellular debris was removed by centrifugation first at 250,000×g for 60 minutes each. The final supernatant was dialyzed for 4 hours with vigorous stirring in 50 mM potassium phosphate pH 8.0, at 4° C.” for “ice.”
as §7

MCAD K304E mutant = biological target: T6, MCAD K304E mutant (Homo sapiens, UniProt P11310, K329E); details: reported in ref. 27; cited from earlier work
T6 sequence (P11310 26-421 K329E): T3 sequence (P11310 26-421) with K304E

activity of LCAD with substrate [1] | activity of ACAD9 with substrate (Purified ACAD9) | Kd [4] | activity of MCAD with substrate (recombinant human MCAD) | activity of SCAD with substrate (Purified SCAD) | Compound | Enzyme specific activity [2] | Enzyme specific activity [3] | thermal stability of the MCAD K304E mutant (MCAD K304E mutant)
active |  |  |  |  | CCCCCCCCCCCC(=O)SCCNC(=O)CCNC(=O)[C@H](O)C(C)(C)COP(=O)(O)OP(=O)(O)OC[C@H]1O[C@@H](n2cnc3c(N)ncnc32)[C@H](O)[C@@H]1OP(=O)(O)O [C12-CoA] |  |  | 
 |  |  |  |  | CCCCCCCCCCCCCCCC(=O)SCCNC(=O)CCNC(=O)[C@H](O)C(C)(C)COP(=O)(O)OP(=O)(O)OC[C@H]1O[C@@H](n2cnc3c(N)ncnc32)[C@H](O)[C@@H]1OP(=O)(O)O [palmitoyl-CoA] | 9.10 (±2.13) nmoles ETF reduced x min^−1 x mg^−1 | 3.91 (±1.34) nmoles ETF reduced x min^−1 x mg^−1 | 
not active | no activity | 2160 nM | no activity | no activity | CC(C)(COP(=O)(O)OP(=O)(O)OC[C@H]1O[C@@H](n2cnc3c(N)ncnc32)[C@H](O)[C@@H]1OP(=O)(O)O)[C@@H](O)C(=O)NCCC(=O)NCCSC(=O)CCCc1ccccc1 [phenylbutyryl-CoA] | 3.41 (±0.53) nmoles ETF reduced x min^−1 x mg^−1 | No activity | 
active |  |  |  |  | CC(C)CCCC(C)C(=O)SCCNC(=O)CCNC(=O)[C@H](O)C(C)(C)COP(=O)(O)OP(=O)(O)OC[C@H]1O[C@@H](n2cnc3c(N)ncnc32)[C@H](O)[C@@H]1OP(=O)(O)O (stereo partly drawn) [2,6-dimethylheptanoyl-CoA] |  |  | 
 |  | 120 nM |  |  | CCCCCCCC(=O)SCCNC(=O)CCNC(=O)[C@H](O)C(C)(C)COP(=O)(O)OP(=O)(O)OC[C@H]1O[C@@H](n2cnc3c(N)ncnc32)[C@H](O)[C@@H]1OP(=O)(O)O [octanoyl-CoA] | 4.01 (±1.34) nmoles ETF reduced x min^−1 x mg^−1 | No activity | provide thermal stability
